{
  "source": "patent US20260130928A1",
  "about": "“COMBINATION OF AKR1C3 ACTIVATED ANTICANCER PRODRUG COMPOUND AND ANALGESIC DRUG FOR TREATING CANCER PATIENTS ACCOMPANIED BY PAIN” (ASCENTAWITS PHARMACEUTICALS, LTD., priority 2022, published 2026)",
  "key": {"[1]": {"tested_on": "human lung cancer NCI-H460", "assay": "Pharmacodynamics in subcutaneous xenograft model of human lung cancer NCI-H460 (tumor volume, TGI)", "format": "in vivo, BALB/c nude mice", "procedure": "Measures of pharmacodynamics of AST-3424 monotherapy and combination therapy with Celecoxib were performed in a subcutaneous xenograft model of human lung cancer NCI-H460 established by using female BALB/c nude mice.\nAfter the inoculation of tumor cell, tumor growth was routinely monitored, and tumor volume and mouse weight were measured. Evaluation of therapeutic efficiency was based on the relative tumor growth inhibition TGI (%). The specific results are shown in Table 3 and FIG. 3, and the Pharmacodynamics analysis data on Day 30 after inoculation (at the end of drug administration) are particularly given in Table 4."}, "[2]": {"conditions": "read-out: Cmax converted to the molar concentration; celecoxib single dosage (200 mg) in healthy subjects"}, "[3]": {"conditions": "cited from earlier work"}, "[4]": {"assay": "Body weight / tolerance of mice in the human lung cancer NCI-H460 model", "experimental": "BALB/c nude mice were subcutaneously inoculated with human lung cancer NCI-H460 cells to establish the subcutaneous transplant tumor model of human lung cancer. The experiment was assigned to seven groups, with 5 mice in each group: the test drug Celecoxib 50 mg/kg and 100 mg/kg groups, the AST-3424 2.5 mg/kg group, and different combination therapy groups of Celecoxib 50 mg/kg or 100 mg/kg and AST-3424 2.5 mg/kg, and the 0.5% sodium carboxymethylcellulose vehicle control group. […] The AST-3424 2.5 mg/kg group was administered by tail vein injection once a week for a total of three weeks, and observed for 7 days. In the combination therapy groups of Celecoxib 50 mg/kg or 100 mg/kg and AST-3424 2.5 mg/kg, Celecoxib was administered by gavage once a day for a total of 15 days, and AST-3424 was administered by tail vein injection once a week for a total of three weeks, and observed for 7 days."}, "[5]": {"tested_on": "H460 cell line", "assay": "In vitro cell proliferation inhibition with the drug combination (CTG method)", "format": "cell-based, human", "conditions": "combined with AST-3424", "procedure": "• a) H460 cells (human non-small lung cancer cells, AKR1C3 enzyme highly expressed) were cultured in RPMI-1640 medium, added with 10% FBS and 1% double antibody, and placed at 37° C. and 5% CO2 for culturing.\n• a) The cells were routinely cultured until the cell saturation was 80%-90%, and when the required quantity was reached, the cells were collected. • b) The cells were resuspended with the corresponding medium and cell counts were performed to prepare a cell suspension with appropriate density. • c) The cell suspension was added to a 96-well plate with 100 μL per well, and the cell density was 2,000 cells per well. • d) The cells were incubated overnight in an incubator at 37° C. with 5% CO2. 1.1.3 Treating Cells with Compound (72 Hours)\nAST-3424 alone: after 24 hours of cell seeding, AST-3424 was administered alone. Specifically, each well was supplemented with 99 μL of growth medium, and then added with 1 μL of the prepared AST-3424 solution to form different concentrations of AST-3424. The plate was shaken gently to ensure uniform mixing, and placed in an incubator at 37° C. with 5% CO2.\nThe cell plates were placed in the incubator for 72 hours.\n1.1.4 Treating Cells with Compound (2 Hours) • a) Administrating single drug: after 24 hours of cell seeding, AST-3424 was administered alone. Specifically, each well was supplemented with 99 μL of growth medium, and then added with 1 μL of the prepared AST-3424 solution to form different concentrations of AST-3424. The plate was shaken gently to ensure uniform mixing, and placed in the incubator for 2 hours. […] The plate was shaken gently to ensure uniform mixing. After the plate was placed in the incubator for 2 hours, 1 μL of the prepared AST-3424 solution was added to form different concentrations of AST-3424. The plate was shaken gently to ensure uniform mixing, and placed in the incubator at 37° C. with 5% CO2 for another 2 hours. Then, the supernatant was discarded, and the remainder was washed twice with growth medium and added with 200 μL of fresh medium.\n1.1.6 Detecting with CTG Method • a) The cell plate to be tested was placed at room temperature to equilibrium for 30 minutes, and 100 μL of culture medium was discarded from each well. • b) 25 μL CTG reagent (CelltiterGlo kit) was added to each well. The plate was placed on a fast shaker to shake for 2 minutes, and then placed at room temperature away from light for 30 minutes. • c) The chemiluminescent signal value was read with multifunctional microplate reader at reading time of 1000 ms.\nIC50 was calculated with GraphPad Prism 5 software, and the IC50 (half maximal inhibitory concentration) of the compound was obtained using the following nonlinear fitting formula: […]"}, "[6]": {"tested_on": "AKR1C3", "conditions": "reported in literature; cited from earlier work"}, "[7]": {"assay": "clinical", "conditions": "human, in vivo"}, "[8]": {"conditions": "Group 2: Celecoxib 50 mg/kg QD×15 p.o., Day 30 after inoculation"}, "[9]": {"conditions": "Group 3: Celecoxib 100 mg/kg QD×15 p.o., Day 30 after inoculation"}, "[10]": {"conditions": "Group 2: Celecoxib 50 mg/kg QD×15 p.o., Day 37 after the inoculation of tumor cell"}, "[11]": {"conditions": "Group 3: Celecoxib 100 mg/kg QD×15 p.o., Day 37 after the inoculation of tumor cell"}},
  "note": "Read-outs that look alike come from different tables or passages of the source.",
  "data": [
    {"compound": "Cc1ccc(-c2cc(C(F)(F)F)nn2-c2ccc(S(N)(=O)=O)cc2)cc1", "note": "[Celecoxib]", "values": [
      {"measurement": "Tumor volume (x ± S)", "setting": "[1]; Group 2: Celecoxib 50 mg/kg QD×15 p.o., Day 9 after cell inoculation", "value": "145.68 ± 12.36", "unit": "mm^3"},
      {"measurement": "Tumor volume (x ± S)", "setting": "[1]; Group 2: Celecoxib 50 mg/kg QD×15 p.o., Day 12 after cell inoculation", "value": "162.55 ± 9.74", "unit": "mm^3"},
      {"measurement": "Tumor volume (x ± S)", "setting": "[1]; Group 2: Celecoxib 50 mg/kg QD×15 p.o., Day 16 after cell inoculation", "value": "175.22 ± 11.61", "unit": "mm^3"},
      {"measurement": "Tumor volume (x ± S)", "setting": "[1]; Group 2: Celecoxib 50 mg/kg QD×15 p.o., Day 19 after cell inoculation", "value": "214.83 ± 26.19", "unit": "mm^3"},
      {"measurement": "Tumor volume (x ± S)", "setting": "[1]; Group 2: Celecoxib 50 mg/kg QD×15 p.o., Day 23 after cell inoculation", "value": "361.15 ± 68.57", "unit": "mm^3"},
      {"measurement": "Tumor volume (x ± S)", "setting": "[1]; Group 2: Celecoxib 50 mg/kg QD×15 p.o., Day 26 after cell inoculation", "value": "471.39 ± 90.94", "unit": "mm^3"},
      {"measurement": "Tumor volume (x ± S)", "setting": "[1]; Group 2: Celecoxib 50 mg/kg QD×15 p.o., Day 30 after cell inoculation", "value": "577.49 ± 102.95", "unit": "mm^3"},
      {"measurement": "Relative tumor volume (x ± S)", "setting": "[1]; [8]", "value": "3.91 ± 0.45"},
      {"measurement": "T/C (%)", "setting": "[1]; [8]", "value": 70.13, "unit": "%"},
      {"measurement": "TGI (%)", "setting": "[1]; [8]", "value": 29.87, "unit": "%"},
      {"measurement": "Tumor volume (x ± S)", "setting": "[1]; Group 2: Celecoxib 50 mg/kg QD×15 p.o., Day 30 after inoculation, in mm³", "value": "577.49 ± 102.95"},
      {"measurement": "Tumor volume (x ± S)", "setting": "[1]; Group 2: Celecoxib 50 mg/kg QD×15 p.o., Day 33 after cell inoculation", "value": "655.39 ± 126.55", "unit": "mm^3"},
      {"measurement": "Tumor volume (x ± S)", "setting": "[1]; Group 2: Celecoxib 50 mg/kg QD×15 p.o., Day 37 after cell inoculation", "value": "1053.12 ± 274.37", "unit": "mm^3"},
      {"measurement": "Tumor volume (x ± S)", "setting": "[1]; Group 3: Celecoxib 100 mg/kg QD×15 p.o., Day 9 after cell inoculation", "value": "144.13 ± 11.94", "unit": "mm^3"},
      {"measurement": "Tumor volume (x ± S)", "setting": "[1]; Group 3: Celecoxib 100 mg/kg QD×15 p.o., Day 12 after cell inoculation", "value": "166.97 ± 17.80", "unit": "mm^3"},
      {"measurement": "Tumor volume (x ± S)", "setting": "[1]; Group 3: Celecoxib 100 mg/kg QD×15 p.o., Day 16 after cell inoculation", "value": "233.79 ± 48.62", "unit": "mm^3"},
      {"measurement": "Tumor volume (x ± S)", "setting": "[1]; Group 3: Celecoxib 100 mg/kg QD×15 p.o., Day 19 after cell inoculation", "value": "331.06 ± 73.94", "unit": "mm^3"},
      {"measurement": "Tumor volume (x ± S)", "setting": "[1]; Group 3: Celecoxib 100 mg/kg QD×15 p.o., Day 23 after cell inoculation", "value": "479.72 ± 117.21", "unit": "mm^3"},
      {"measurement": "Tumor volume (x ± S)", "setting": "[1]; Group 3: Celecoxib 100 mg/kg QD×15 p.o., Day 26 after cell inoculation", "value": "581.86 ± 130.92", "unit": "mm^3"},
      {"measurement": "Tumor volume (x ± S)", "setting": "[1]; Group 3: Celecoxib 100 mg/kg QD×15 p.o., Day 30 after cell inoculation", "value": "730.52 ± 183.64", "unit": "mm^3"},
      {"measurement": "Relative tumor volume (x ± S)", "setting": "[1]; [9]", "value": "4.86 ± 0.82"},
      {"measurement": "T/C (%)", "setting": "[1]; [9]", "value": 87.16, "unit": "%"},
      {"measurement": "TGI (%)", "setting": "[1]; [9]", "value": 12.84, "unit": "%"},
      {"measurement": "Tumor volume (x ± S)", "setting": "[1]; Group 3: Celecoxib 100 mg/kg QD×15 p.o., Day 30 after inoculation, in mm³", "value": "730.52 ± 183.64"},
      {"measurement": "Tumor volume (x ± S)", "setting": "[1]; Group 3: Celecoxib 100 mg/kg QD×15 p.o., Day 33 after cell inoculation", "value": "867.83 ± 225.15", "unit": "mm^3"},
      {"measurement": "Tumor volume (x ± S)", "setting": "[1]; Group 3: Celecoxib 100 mg/kg QD×15 p.o., Day 37 after cell inoculation", "value": "1459.88 ± 505.50", "unit": "mm^3"},
      {"measurement": "Cmax", "setting": "[2]", "value": 1.85, "unit": "µM"},
      {"measurement": "Cmax", "setting": "[3]; celecoxib single dosage (200 mg) in healthy subjects, drug instructions", "value": 705, "unit": "ng/mL"},
      {"measurement": "Mean body weight g (x ± S)", "setting": "[4]; Group 2: Celecoxib 50 mg/kg QD×15 p.o., Day 9 after the inoculation of tumor cell", "value": "24.8 ± 0.5", "unit": "g"},
      {"measurement": "Change of body weight (%)", "setting": "[4]; [10]", "value": 4.05, "unit": "%"},
      {"measurement": "Mean body weight g (x ± S)", "setting": "[4]; [10]", "value": "25.8 ± 0.4", "unit": "g"},
      {"measurement": "Mean body weight g (x ± S)", "setting": "[4]; Group 3: Celecoxib 100 mg/kg QD×15 p.o., Day 9 after the inoculation of tumor cell", "value": "25.2 ± 0.5", "unit": "g"},
      {"measurement": "Change of body weight (%)", "setting": "[4]; [11]", "value": 2.28, "unit": "%"},
      {"measurement": "Mean body weight g (x ± S)", "setting": "[4]; [11]", "value": "25.8 ± 0.6", "unit": "g"}
    ]},
    {"compound": "CC(C)Cc1ccc(C(C)C(=O)O)cc1", "note": "(centres unmarked) [Ibuprofen]", "values": [
      {"measurement": "effect of the combination on the cell proliferation inhibitory activity of AST-3424", "setting": "[5]", "value": "almost no effect"},
      {"measurement": "AKR1C3 inhibitory activity", "setting": "[6]", "value": "have AKR1C3 inhibitory activity"},
      {"measurement": "Cmax", "setting": "[7]", "value": 94, "unit": "µM"},
      {"measurement": "Cmax", "setting": "[3]; ibuprofen reference preparation, single dose, fasting, healthy Chinese subjects", "value": 19400, "unit": "ng/mL"}
    ]}
  ]
}
